Counter-ions that a name gives are not always drawn.
What was measured:
GAA [1] = molecular target: T1, GAA (Mus musculus, UniProt P70699); assay: GAA activity, protein and processing in mice administered DNJ orally; assay type: in vivo; details: data not shown
T1 construct: from tissue

alpha-galactosidase = molecular target: T2, alpha-galactosidase (Mus musculus, UniProt P51569); assay: Specificity: alpha-galactosidase in mice administered DNJ; assay type: in vivo; details: data not shown
T2 construct: from tissue
T2 sequence (P51569 32-419): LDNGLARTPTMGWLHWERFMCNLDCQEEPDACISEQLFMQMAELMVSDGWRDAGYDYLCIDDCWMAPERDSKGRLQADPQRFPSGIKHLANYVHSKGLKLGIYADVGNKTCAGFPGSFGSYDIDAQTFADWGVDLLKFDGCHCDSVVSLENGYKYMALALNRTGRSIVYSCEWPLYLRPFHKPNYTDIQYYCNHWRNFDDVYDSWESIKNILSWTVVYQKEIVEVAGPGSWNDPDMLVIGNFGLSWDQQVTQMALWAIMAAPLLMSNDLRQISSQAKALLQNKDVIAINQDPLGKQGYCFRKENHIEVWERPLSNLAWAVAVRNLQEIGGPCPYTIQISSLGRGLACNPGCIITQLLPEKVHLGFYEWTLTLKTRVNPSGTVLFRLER

hP545L GAA [2] = molecular target: T3, hP545L GAA (Homo sapiens, UniProt P10253, P545L); assay: Biochemical assay for determining GAA level in tissues of DNJ-dosed hP545L GAA Tg/KO mice; assay type: in vivo; details: 'Moderate' hP545L GAA Tg/KO mice; DNJ 30, 100, 300 mg/kg/day oral ad libitum in drinking water, 4 weeks; disease-relevant tissues
Description: (§1) Mice were euthanized with CO2 and body weights were recorded. […] Plasma was collected by spinning blood at 2700 g for 10 minutes at 4° C. Heart, diaphragm, gastrocnemius, soleus, skin, and brain tissues were removed, washed in cold PBS, blotted dry, and weighed before storing on dry ice. For biochemical assays (GAA activity, glycogen and Western blotting), lysates were prepared by homogenizing ˜50 mg tissue for 3-5 seconds on ice with a micro homogenizer in 200 μL Lysis Buffer (25 mM Bis-Tris pH 6.5, 150 mM NaCl, 1% Triton X-100 pH 6.5). For histology assays, tissues were harvested and fixed immediately in 3.7% Formaldehyde/90% Ethanol mix. After fixation, the samples were processed in various grades (10, 20, 50, 75, 100%) of alcohol and embedded in paraffin.
(§2) The dosing solutions were made fresh each week and water consumption was monitored daily.
(§3) After dosing was completed, mice were euthanized and plasma samples as well as tissue samples harvested as described above.

hP545L GAA [3] = molecular target: T3, hP545L GAA; assay: GAA protein level by Western blotting in tissues of DNJ-dosed hP545L GAA Tg/KO mice; assay type: in vivo; details: 'Moderate' hP545L GAA Tg/KO mice; DNJ 30, 100, 300 mg/kg/day oral, 4 weeks; disease-relevant tissues
Description: as §1
Tissue lysates (50 μg total protein per lane) were subjected to SDS-PAGE on 12% gels (Bio-Rad, Hercules, Calif.), transferred to PVDF membranes (Bio-Rad), and immunoblotted with a rabbit anti-human GAA (kind gift of Dr. Barry Byrne) polyclonal antibody (1:500 dilution). Protein bands were detected using peroxidase-conjugated goat anti-rabbit secondary antibodies (1:1000) (Jackson Immunosearch Labs, West Grove, Pa.) in combination with enhanced chemiluminescence (Pierce). […]
as §2

[4] = tested on: mutant forms of GAA in Pompe patient-derived fibroblasts; assay: Level of mutant GAA in Pompe patient-derived fibroblasts; assay type: cell-based, human; details: data not shown
Half-life of DNJ = details: stated within a theory on/off dosing, compared to GAA (days); no method
[5] = tested on: mutated form of GAA (M519V, P545L, G549R, L552P) in HEK293 cells; assay: GAA activity, protein and processing in HEK293 cells transiently-transfected with mutated GAA; assay type: cell-based; details: data not shown
GAA [6] = assay: GAA activity, protein and processing in monkeys administered DNJ orally; assay type: in vivo, cynologous monkeys; details: cynomolgus monkeys, data not shown
recombinant human GAA = recombinant human GAA (Homo sapiens, UniProt P10253); assay: Binding to and thermostability of recombinant human GAA in vitro; details: data not shown
[7] = tested on: mutant forms of recombinant human GAA in COS-7 cells; assay: Level of mutant GAA in transiently-transfected COS-7 cells; assay type: cell-based; details: COS-7 cells transiently-transfected with recombinant human GAA; data not shown
[8] = tested on: human GAA missense mutations; assay: In vitro studies to identify a human GAA missense mutation responsive to DNJ; assay type: cell-based; details: data not shown
[9] = molecular target: human GAA missense mutations (Homo sapiens, UniProt P10253, P545L); assay: as above; assay type: cell-based; details: 5-day incubation with DNJ, data not shown
hP545L GAA Tg/KO mice = assay: Biochemical assay for determining glycogen level (amyloglucosidase digestion) in tissues of DNJ-dosed hP545L GAA Tg/KO mice; assay type: in vivo, mouse; details: 'Moderate' hP545L GAA Tg/KO mice
Description: as §1
Tissue glycogen levels were measured in supernatants of heat denatured (99° C. for 10 min.) lysates as prepared above for GAA assay. Samples were analyzed in duplicates by adding 4 μL of lysate to 36 μL water with and without 10 μL of 800 units/mL of amyloglucosidase enzyme (Sigma) and incubated for 1 hour at 50° C. The reaction was stopped by heat inactivation at 100° C. for 10 min. Finally 200 μL of glucose reagent was added to estimate the amount of glucose released at 340 nm absorbance on Spectramax. A glycogen standard curve ranging from 400 μg/mL to 5 μg/mL was run each day for conversion of absorbance data to absolute glycogen levels. Data are ultimately expressed as μg of glycogen cleaved/milligram of protein. The protein levels were measured in lysates (before denaturing) using Micro BCA Protein Assay Kit according to the manufacturer's instructions.
as §2, §3
Mice were orally dosed (ad libitum in drinking water) either daily or using one of three less-frequent on/off regimens (i.e., (i) 3 days on/4 days off; (ii) 5 days on/2 days off; or (iii) 7 days on/7 days off). […] The dosing solution was made fresh each week and water consumption was monitored daily.
After dosing was completed, mice were euthanized and tissue samples harvested as described above.

[10] = DNJ 30, 100, 300 mg/kg/day oral, 4 weeks

T1 sequence (P70699 70-953): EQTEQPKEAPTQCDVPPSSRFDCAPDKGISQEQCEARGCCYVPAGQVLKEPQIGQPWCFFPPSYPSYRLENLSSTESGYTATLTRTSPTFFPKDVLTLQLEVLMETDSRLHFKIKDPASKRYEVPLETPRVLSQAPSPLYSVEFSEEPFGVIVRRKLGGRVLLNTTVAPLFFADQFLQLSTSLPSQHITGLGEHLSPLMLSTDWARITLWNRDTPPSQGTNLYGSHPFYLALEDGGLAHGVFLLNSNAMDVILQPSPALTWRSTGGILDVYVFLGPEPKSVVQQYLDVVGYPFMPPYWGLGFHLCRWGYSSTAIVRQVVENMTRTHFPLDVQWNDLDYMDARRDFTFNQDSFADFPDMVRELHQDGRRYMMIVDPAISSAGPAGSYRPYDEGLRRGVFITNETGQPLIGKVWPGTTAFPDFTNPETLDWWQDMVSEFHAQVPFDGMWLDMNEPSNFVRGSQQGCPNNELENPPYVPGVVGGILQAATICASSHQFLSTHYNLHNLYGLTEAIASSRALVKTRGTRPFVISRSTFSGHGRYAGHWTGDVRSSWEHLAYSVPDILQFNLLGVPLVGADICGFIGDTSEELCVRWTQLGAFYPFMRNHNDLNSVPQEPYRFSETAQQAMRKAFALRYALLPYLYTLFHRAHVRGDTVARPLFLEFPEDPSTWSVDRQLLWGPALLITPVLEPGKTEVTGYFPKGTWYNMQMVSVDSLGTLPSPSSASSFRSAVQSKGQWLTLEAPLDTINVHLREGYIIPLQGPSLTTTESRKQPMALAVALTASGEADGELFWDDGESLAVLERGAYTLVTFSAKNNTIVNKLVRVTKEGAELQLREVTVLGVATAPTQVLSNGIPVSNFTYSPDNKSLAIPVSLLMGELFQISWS

GAA protein levels (GAA [1]): increased | processing to the 70-kDa mature form of GAA (GAA [1]): increased | GAA activity (GAA [1]; oral): increase in a dose-dependent manner | alpha-galactosidase activity (alpha-galactosidase): no increase | GAA levels (tissue GAA activity) (hP545L GAA [2]): significant and dose-dependent increase | GAA protein levels (hP545L GAA [3]): significant and dose-dependent increase | processing of GAA protein to its 76 kDa mature form (hP545L GAA [3]): significant and dose-dependent increase | half-life of DNJ (Half-life of DNJ): hours | binding to GAA (recombinant human GAA): directly bind | thermostability of recombinant human GAA (recombinant human GAA): concentration-dependent increase
SMILES: OC[C@H]1NC[C@H](O)[C@@H](O)[C@@H]1O [DNJ, 1-deoxynojirimycin-HCl]
level of multiple different mutant forms of GAA [4]: significantly increase | GAA processing to the 95-, 76-, and 70-kDa forms [5]: increase | GAA protein levels [5]: increase | level of GAA activity [5]: increase | GAA activity (GAA [6]; oral): increase in a dose-dependent manner | GAA protein levels (GAA [6]): increased | processing to the 70-kDa mature form of GAA (GAA [6]): increased | level of multiple different mutant forms of GAA [7]: significantly increase | responsiveness of P285R, E262K, E579K GAA mutations to DNJ [8]: even more responsive than P545L | GAA activity, P545L mutation [9]: robust, reproducible, dose-dependent and statistically-significant increase | glycogen reduction, on/off regimens compared to daily dosing (hP545L GAA Tg/KO mice; 100 mg/kg/day oral, 4 weeks, p<0.05 daily vs. on/off): greater glycogen reduction | glycogen levels in disease-relevant tissue (hP545L GAA Tg/KO mice; 100 mg/kg/day oral, daily or on/off (3/4, 5/2, 7/7 days), 4 weeks, majority of tissues examined, p<0.05 vs. untreated): significant reduction | glycogen levels of brain (hP545L GAA Tg/KO mice; [10]): robust reduction | glycogen levels of diaphragm (hP545L GAA Tg/KO mice; [10]): moderate reduction | glycogen levels of gastrocnemius (hP545L GAA Tg/KO mice; [10]): moderate reduction | glycogen levels of heart (hP545L GAA Tg/KO mice; [10]): moderate reduction | glycogen levels of skin (hP545L GAA Tg/KO mice; [10]): robust reduction | glycogen levels of soleus (hP545L GAA Tg/KO mice; [10]): robust reduction | tissue glycogen levels (hP545L GAA Tg/KO mice; four-week oral administration (ad libitum), tissues overall): decrease

Source: US8466340B2, “Mouse model for pompe disease and methods of use thereof” (Amicus Therapeutics, Inc., priority 2009, dated 2013)
